Assay results reported in ChEMBL document CHEMBL1151105, “Antitumor principles in mosses: the first isolation and identification of maytansinoids, including a novel 15-methoxyansamitocin P-3” (J Nat Prod, 1988).
Activity calls are given as the source filed them. The rule behind the calls is not given here.

System: P388
Test: Cytotoxicity against mouse P388 cells after 48 hrs
Assay type: functional, cell-based

Compound | Activity
COc1cc2cc(c1Cl)N(C)C(=O)C[C@H](OC(=O)C(C)N(C)C(=O)C(C)C)[C@]1(C)O[C@H]1[C@H](C)[C@@H]1C[C@@](O)(NC(=O)O1)[C@H](OC)/C=C/C=C(\C)C2OC (some centres undefined) | Active
COc1cc2cc(c1Cl)N(C)C(=O)C[C@H](OC(=O)C(C)C)[C@]1(C)O[C@H]1[C@H](C)[C@@H]1C[C@@](O)(NC(=O)O1)[C@H](OC)/C=C/C=C(\C)C2 | Active
COc1cc2cc(c1Cl)N(C)C(=O)C[C@H](OC(=O)C(C)N(C)C(=O)C(C)C)[C@]1(C)O[C@H]1[C@H](C)[C@@H]1C[C@@](O)(NC(=O)O1)[C@H](OC)/C=C/C=C(\C)C2 (some centres undefined) | Active
COc1cc2cc(c1Cl)N(C)C(=O)C[C@H](OC(=O)C(C)C)[C@]1(C)O[C@H]1[C@H](C)[C@@H]1C[C@@](O)(NC(=O)O1)[C@H](OC)/C=C/C=C(\C)C2OC (some centres undefined) | Active
